# Reference: US8362031B2, “Lonidamine analogues and treatment of polycystic kidney disease” (University of Kansas, priority 2004, dated 2013)
# Entries after “also recorded” stand apart in the source; their conditions may differ.
# Legend:
# [1] = tested on: ID8 cells (ovarian cancer); assay: ID8 cell growth in vitro; format: cell-based
# Description: (§1) When RC-MC-110 is added to a variety of cancer cells: ovarian (ID8), taxol-resistant ovarian (ID8), prostate (LNCaP and PC-3), kidney (293).
# [2] = tested on: ovarian (ID8), taxol-resistant ovarian (ID8), prostate (LNCaP and PC-3), kidney (293); assay: Growth of cancer cell lines in vitro; format: cell-based; conditions: all cell lines named
# Description: as §1
# fruitfly = assay: Reproduction of fruitfly; format: in vivo, Drosophila (fruitfly)
# Source text: Several known Hsp90 inhibitors are listed above. With regard to HSP90, RC-MC-110 likely a novel inhibitor of the N-terminal ATP binding site or a novel site on Hsp90. It should be noted that mutants of Hsp90 in Drosophila (fruitfly) produce sterile males and females. […] Genetics. 1999 March; 151(3):1065-79.
# rats = assay: Toxicology: organs sectioned and examined after dosing; format: in vivo
# [3] = tested on: ADPKD cyst-lining epithelial cells; assay: MTT assay, proliferation of ADPKD cyst-lining epithelial cells; format: cell-based, human
# Description: Gamendazole (GMZ) was studied to determine the effect on cAMP and EGF treated ADPKD cyst-lining epithelial cells. The cells were treated with 100 uM cAMP or 25 ng/ml EGF to stimulate cell proliferation. Increasing concentrations of gamendazole were added to the medium of the cells. After 72 hours of treatment, MTT assays were performed.
# For the MTT assay shown in FIG. 10A, ADPKD cyst-lining epithelial cells were plated at a density of 4×10^3 cells per well in a 96-well cell culture plate (n=6). Cells were serum-starved for 24 hours and treated either with 100 μM cAMP or 25 ng/ml EGF to stimulate cell proliferation. For the MTT assay shown in FIG. 10B, ADPKD cells were plated at a density of 2×10^3 cells per well in medium containing 1% FBS. After 24 hours, medium was changed to include 5% FBS. Increasing concentrations of GMZ were added to the medium for the cells of both FIGS. 10A and 10B to determine the effect of GMZ on cell proliferation. After 72 hours of treatment, MTT assays were performed by adding dye solution to the cells and stopping the reaction four hours later. Optical densities were measured using a spectrophotometer. In each group, results were expressed as a percentage of the control group (not treated with GMZ).
# P-ERK = assay: Western blot of treated ADPKD cells; format: cell-based, human; conditions: 50 uM for 48 h, n=2
# Description: (§2) Gamendazole (GMZ) was tested to determine if treatment decreases Hsp90 client protein levels in ADPKD cells. Briefly, ADPKD cells were treated with 50 μM GMZ for 24, 48 or 72 hours. Proteins from 20 μg total cell lysate were separated by SDS-PAGE, transferred to a PVDF membrane and probed with antibodies against the Hsp90 client proteins ErbB2 (185 kD), and cdk4 (34 kD). […] GMZ decreased the total levels of these client proteins in ADPKD cells. A decrease in P-ERK correlates with the inhibition of cell proliferation by GMZ. […] The data also provides an indication that other lonidamine derivatives may be useful in therapies for PKD.
# total ERK = assay: Western blot of treated ADPKD cells; format: cell-based, human; conditions: 50 uM for 48 h
# Description: as §2
# Cdk4 = assay: Western blot of treated ADPKD cells; format: cell-based, human; conditions: 50 uM
# Description: (§3) Gamendazole (GMZ) was tested to determine if treatment decreases Hsp90 client protein levels in ADPKD cells. Briefly, ADPKD cells were treated with 50 μM GMZ for 24, 48 or 72 hours. Proteins from 20 μg total cell lysate were separated by SDS-PAGE, transferred to a PVDF membrane and probed with antibodies against the Hsp90 client proteins ErbB2 (185 kD), and cdk4 (34 kD).
# ErbB2 = assay: Western blot of treated ADPKD cells; format: cell-based, human; conditions: 50 uM
# Description: as §3
# [4] = tested on: E15.5 kidneys from Pkd1+/+, +/−, and −/− mice; assay: Metanephric organ culture, cAMP-driven cyst formation; format: cell-based, mouse
# Description: To determine whether gamendazole alters the cyst-forming process in response to cAMP, kidneys from Pkd1+/+, +/−, and −/− mice were placed in metanephric culture at E15.5 and treated with 100 uM 8-Br-cAMP with or without gamendazole (100 nM-10 uM) for 4 days.
# The length of time that Gamendazole was able to block fluid secretion in embryonic kidneys using a washout technique was studied. Briefly, E15.5 kidneys were treated with cAMP alone or with cAMP plus 5 microM Gamendazole. 24 hrs later, culture medium was removed from the GMZ+cAMP-treated kidneys and was replaced with fresh medium containing cAMP only. […] This was evident by the reduced number and size of the tubule dilations on Day 4.
# [5] = 100 nM-10 uM for 4 days with 100 uM 8-Br-cAMP
smiles,measurement,setting,value
"O=C(O)/C=C/c1nn(Cc2ccc(Cl)cc2Cl)c2cc(C(F)(F)F)ccc12 [RC-MC-110, trans 3-[1-(2,4-dichlorobenzyl)-6-trifluoromethyl-1H-indazol-3-yl]-acrylic acid]","Sensitivity of ID8 cell growth, compared with lonidamine",[1],more sensitive to RC-MC-110 than lonidamine
same,Growth of cancer cell lines in vitro,[2],inhibited by RC-MC-110 in a dose-dependent manner
same,"Potency on fruitfly reproduction, compared with lonidamine",fruitfly; in vivo,more potent than lonidamine
same,Reproduction of fruitfly,fruitfly; provided to a fruitfly,inhibited reproduction
same,"Toxicology: liver, lung, pancreas, spleen, heart and kidney (histology)","rats; 6 mg/kg, follow-up experiment, findings per animal","The liver did have isolated, scattered, small necrotic patches, resembling what is often found in subacute hepatic necrosis"
same,"Toxicology: liver, lung, pancreas, spleen, heart and kidney (histology)","rats; 12 mg/kg, follow-up experiment, findings per animal","The liver did have isolated, scattered, small necrotic patches, resembling what is often found in subacute hepatic necrosis; also recorded: The liver contained small, patchy areas of necrosis resembling what is often described for subacute hepatic necrosis; also recorded: The lungs also had multiple, small hemorrhagic areas around the respiratory and terminal bronchioles"
same,"Toxicology: liver, lung, pancreas, spleen, heart and kidney (histology)","rats; 25 mg/kg, two animals examined, findings per animal","liver, lung, pancreas, spleen, heart and kidney all appear within normal limits"
same,"Toxicology: liver, lung, pancreas, spleen, heart and kidney (histology)","rats; 200 mg/kg, two animals examined, findings per animal","liver, lung, pancreas, spleen, heart and kidney all appear within normal limits"
same,"Toxicology: liver, lung, pancreas, spleen, heart and kidney (histology)","rats; oral 1.5 mg/kg, two animals, corn oil","the liver showed a small number of randomly scattered, small necrotic patches, but was otherwise normal"
same,"Toxicology: liver, lung, pancreas, spleen, heart and kidney (histology)","rats; oral 1.5 mg/kg, two animals, corn oil, 1.5 mg/kg",The other animal receiving 1.5 mg/kg appeared normal
same,"Toxicology: liver, lung, pancreas, spleen, heart and kidney (histology)","rats; oral 6 mg/kg, 3 mg/kg, 1 mg/kg and 0.5 mg/kg, two animals from each dose level, corn oil","liver, lung, pancreas, spleen, heart and kidney all appeared within normal limits"
"O=C(O)CCc1nn(Cc2ccc(Cl)cc2Cl)c2cc(C(F)(F)F)ccc12 [GMZ, 3-[1-(2,4-dichlorobenzyl)-6-trifluoromethyl-1H-indazol-3-yl]-propionic acid]",EGF-induced proliferation of ADPKD cells (MTT),"[3]; 25 ng/ml EGF, 1 uM to 25 uM GMZ for 72 h, dose-dependent",significantly inhibited
same,cell proliferation at 10 μM,[3]; 10 μM,no effect on cell proliferation
same,cAMP-induced proliferation of ADPKD cells (MTT),"[3]; 100 μM cAMP, 1 uM to 25 uM GMZ for 72 h, dose-dependent",significantly inhibited
same,"Cell proliferation of ADPKD cells with increasing concentration (MTT, FIGS. 10A and 10B)","[3]; cAMP, EGF or 5% FBS medium, 72 hours",more effectively inhibited cell proliferation as the concentration was increased
same,P-ERK levels,P-ERK,71.2 % of controls
same,total ERK levels,total ERK,unchanged
same,levels of the Hsp90 client protein Cdk4,Cdk4,decreased levels
same,levels of the Hsp90 client protein ErbB2,ErbB2,decreased levels
same,Toxicity to the kidneys in metanephric culture,[4]; [5],did not appear to be toxic to the kidneys
same,cystic dilation,[4]; [5],significantly inhibited cystic dilation
same,cyst formation in Pkd1+/− kidneys,[4]; 1-2 uM,essentially preventing cyst formation
same,cyst reduction in Pkd1−/− kidneys,"[4]; 5-10 uM, data not shown",dramatic cyst reduction
same,cAMP-mediated cyst formation in heterozygous and null metanephric kidneys,[4]; 5 microM,significantly inhibited cAMP-mediated cyst formation
same,"cystic index, three Pkd1 genotypes",[4]; 5 microM,dramatic decrease in cystic index
same,Persistence of inhibition after washout,"[4]; 5 microM for 24 hrs, then cAMP only, read on Day 4",the inhibitory effects appeared to persist in culture
same,Size of kidneys in organ culture,[4]; compared to untreated counterparts,somewhat reduced in size
